A melting point compilation (Tetko et al.; mined from patent text by program, amines drawn as free bases though some values may be those of a salt)
Residues, ends and D or L forms follow the SMILES beside them.

SMILES	melting point
Cc1ccc(S(=O)(=O)NC(=O)C2C(=O)CC(C(C)C)CC2=O)cc1 (centres undefined)	106 to 108 °C
O=C(Nc1ccc2c(c1)OC(F)(F)O2)NC12CC3CC(CC(C3)C1)C2	213 to 215 °C
CC(=O)OC(C)C=C(C)c1ccc(-c2ccccc2)cc1 (centres undefined)	62 to 64 °C
NC(=O)c1cc(-c2ccccc2)c(=O)n2c1-c1ccccc1C2	294 to 296 °C
NC(=O)CC[C@H](NC(=O)CCc1ccc(OCc2ccccc2)cc1OCc1ccccc1)C(=O)N1CCN(c2ccccc2)CC1	118 to 120 °C
COc1ccc(-c2ccc(C(=O)Nc3ccc4cc(CN5CCCC5)cnc4c3C)cc2F)cc1	174 to 176 °C
COCn1ncc2cc(Cl)c(NC(=O)c3cc(C(F)(F)F)nn3-c3ncccc3Cl)c(C(=O)NC(C)C)c21	180 to 182 °C
Nc1c(CC(=O)O)cccc1Oc1ccccc1Cl	86 to 90 °C
OC1(c2ccc(Cl)c(Cl)c2)c2ccccc2C2=NCCCN21 (centres undefined)	267 to 269 °C
O=C1CC(CSc2nc3ccccc3s2)C(=O)O1 (centres undefined)	87 to 88 °C
CCn1ncc2c3noc(-c4cccc(C)c4)c3cnc21	178 to 179 °C
CC(=O)OCCn1c(C(=O)Nc2ccc(OCC(C)(C)C)c(C#N)c2)cc2ccccc21	169 to 170 °C
C=C1N(C(C)C)C(=O)OC12CCN(C(=O)NC(=O)c1cccnc1Cl)CC2	186 to 188 °C
CC(C)Nc1nc(C(=O)O)cn1C	247 °C
CCCN1CCC(c2c[nH]c3ccc(NS(C)(=O)=O)cc23)CC1	87 to 90 °C
COC(=O)NC(=O)c1ccc(C=NO)cc1C	141 to 143 °C
COc1ccc2c(c1)OC(CNCCCOc1ccc3cccnc3c1)CO2 (centres undefined)	135 to 142 °C
CCOC(=O)c1cn(-c2ccccc2)nc1OCc1oc2cc(OCc3nc(-c4ccccc4)oc3C)ccc2c1-c1ccccc1	143 to 144 °C
CCCCc1nc(Cl)c(C(N)=O)n1Cc1ccc2oc(-c3ccccc3-c3nnn[nH]3)c(Br)c2c1	131 to 133 °C
CCCCN1CC=C(c2cccc3[nH]ccc23)CC1	91 °C
CCCc1nc(N)cc(OC)n1	97 to 99 °C
CCOC(=O)CC(=O)Nc1cc(F)cc(F)c1	42 to 45 °C
Cc1c(C(O)C(F)(F)F)oc2c(Br)cccc12 (centres undefined)	93 °C
CCC(=O)c1ccc(OC)c(Cl)c1Cl	51 to 54 °C
CC1CC2OC2C=CC=CC(=O)Cc2c(Cl)c(O)cc(O)c2C(=O)O1 (centres undefined)	195 °C

SMILES	melting point
CCCCN[C@@H]1CN(CC)C[C@H]1O (relative stereo)	57.5 to 59 °C
CC1(C)CC(=O)c2c(nc(C3CCCC3)c(C(=O)c3ccc(C(F)(F)F)cc3)c2-c2ccc(F)c(F)c2)C1	210 to 212 °C
CSc1ncc2cc(Oc3ccccc3F)c(=O)n(C)c2n1	234 to 236 °C
COc1ccc(CCNc2cc(-c3ccco3)nc(-c3nccs3)n2)cc1OC	83 to 83.8 °C
Cc1ccc2sc3cc(CC(=O)O)ccc3c2c1	185 to 187 °C
Cc1ccc(F)c(NC(=O)c2ccccc2CN2C(=O)C3(COc4cc5c(cc43)CCO5)c3ccccc32)c1 (centres undefined)	214 to 216 °C
COc1ccc(-c2cc(-c3ccccc3)c(-c3ccccc3)s2)cc1	124 to 126 °C
C=CCSc1cc(C(=O)O)cc(N)c1C(=O)c1ccccc1	152 to 154 °C
CN(C)c1cccc2c(S(=O)(=O)Nc3ccc(Cl)nn3)cccc12	153 to 154 °C
Cc1cc(-c2cc(C(F)(F)F)nn2-c2ccc(S(C)(=O)=O)c(F)c2)ccc1-c1cscn1	112 to 114 °C
O=C1OC[C@H]2[C@@H]1N(Cc1ccccc1)C(=O)N2Cc1ccccc1 (relative stereo)	106 to 109 °C
CN1C(=O)CC[C@]2(C)c3ccc(Sc4ccc5c([N+](=O)[O-])cccc5n4)cc3CC[C@@H]12	149 to 154 °C
CCN(CC)C(=O)CCS(=O)c1cc(-c2ccccc2)nc2ccccc12 (centres undefined)	130 °C
O=C(CCCN1CCOCC1)Nc1cccc(-c2ccnc3c(C(=O)c4cccs4)cnn23)c1	127 to 133 °C
C=CCNC(=O)C=Cc1cn(C)nc1[N+](=O)[O-]	143 to 146 °C
CC(C)CC(NC(=O)C(Cc1ccccc1)NC(=O)CNC(=O)C(C)NC(=O)C(N)Cc1ccc(O)cc1)C(=O)NC(CCCNC(=N)N)C(=O)O (centres undefined) (H-YAGFLR-OH; configuration not given here)	173 to 176 °C
CC(C(=O)O)c1ccc2c(-c3ccc(F)cc3)noc2c1 (centres undefined)	151 to 154 °C
Cn1nc(OC2=CC(CF)(CF)Oc3ccc(C(F)(F)C(F)(F)F)cc32)ccc1=O	150 to 152 °C
Cc1ncccc1-c1ccc(OC2SCC(O)C(O)C2O)cn1 (centres undefined)	167 to 168 °C
COc1ccc(CC(=O)Nc2c(C)c(C)c3c(c2C)C(c2ccc(C(C)C)cc2)C(C)(C)O3)cc1 (centres undefined)	171 to 173 °C
COCCCn1nnnc1-c1cc(-c2cccc(C(=O)O)c2)c(OCc2ccccc2)cc1OCc1ccccc1	59 to 63 °C
CC1(C)Nc2nc(Cl)ccc2NC1=O	229 °C
COc1cc(C)ccc1S(=O)(=O)O	92 to 94 °C
CC(=O)SC(Cc1ccc(F)cc1)C(=O)O (centres undefined)	44 to 46 °C
COC(=O)COc1c(C)cc(SCc2ccc(-c3ccc(C(F)(F)F)cn3)cc2)c2c1CCCO2	156 to 157 °C

SMILES	melting point
O=c1[nH]c(C(F)(F)C(F)(F)F)nc2ncc(Br)cc12	200 to 202 °C
O=C(O)c1cn(-c2cc([N+](=O)[O-])c(F)cc2F)c2c(F)c(F)c(F)cc2c1=O	245 to 255 °C
COCC(C)Oc1ccc2c(c1)c(-c1cc3cccnc3[nH]1)cn2C (centres undefined)	150 to 151 °C
NS(=O)(=O)Oc1cccc(F)c1	53 to 55 °C
CC(C)(C)[Si](C)(C)Oc1ccc(CCNc2ncnc3nccnc23)cc1	164 to 165 °C
NC(=O)CCCCn1ccc([N+](=O)[O-])n1	129 to 131 °C
O=C(O)[C@H](Cc1ccccc1)C[C@@H](Cc1ccccc1)C(=O)N[C@@H](COCc1ccccc1)C(=O)O	149 to 151 °C
O=C(NCCCc1ccncc1)N(CCC12CC3CC(CC(C3)C1)C2)C1CCCC1	136 to 138 °C
CC(C)(Cc1ccc(Cl)cn1)C(N)=O	51.4 to 53.4 °C
CCCCCCCCCCNC(=O)c1ccc([N+](=O)[O-])cc1	89 to 91 °C
CCC(CC)c1ccc(Cl)c2nc3n(c12)CCN3c1ccc(Cl)cc1Br	169 to 171 °C
O=C1c2cccc3cccc(c23)C(=O)N1C1CCC(O)CC1 (centres undefined)	240 to 242 °C
O=C(O)COc1cccc2c1CCc1sc(SC(c3ccccc3F)c3ccccc3F)nc1-2	194 to 196 °C
CN(C)C1(Cc2ccccc2)CC=C(c2c[nH]c3ncccc23)CC1 (centres undefined)	222 to 225 °C
COCOc1cc(CO)n(Cc2ccc(Cl)cc2Cl)n1	82 to 83 °C
Cn1cncc1C(O)(c1ccc(Cl)cc1)c1ccc2nc(C=CC(N)=O)cc(-c3cccc(Cl)c3)c2c1 (centres undefined)	80 °C
Cc1ccc(SN(C)C=Nc2ccc(Cl)cc2C)cc1	49 to 50.5 °C
CC(C)(C)OC(=O)NCc1cccc(Nc2n[nH]c3ncnc(Nc4cccc(Cl)c4)c23)c1	147 to 148 °C
CCOC(=O)[C@H](CNC(=O)OC(C)(C)C)NS(=O)(=O)N(C)C	65 to 67 °C
CCOC(=O)/C(=C\Nc1ccc(OC)c(OC)c1)c1ccc(OC)cc1	88 to 89 °C
CC1CCC(NC(=O)NS(=O)(=O)c2ccc(CCNC(=O)N3CCC(C)CC3=O)cc2)CC1 (centres undefined)	190 to 191 °C
Cc1cccc(-c2nc(N)ncc2-c2ccc(=O)n(C(C)C)n2)c1	198 °C
COc1ccc(-c2nc3n(c2-c2ccccn2)CCC3)cc1	142 to 145 °C
Cc1cc(Cc2cc(C(C)(C)C)cc(C(C)(C)C)c2O)c(O)c(-n2nc3ccccc3n2)c1	171 °C
COc1cc2c(cc1O)CC(C)(C)NC2	170 to 173 °C

SMILES	melting point
COCCn1c(C)cc(C(=O)c2cccc(Cl)c2)c1C	112 to 113 °C
CN(C)C(=O)Cc1c(-c2ccc(Cl)cc2)nn2cccnc12	174 to 176 °C
N=C(NO)c1ncn2c(C(F)(F)F)cc(-c3ccc(C(F)(F)F)cc3)nc12	213 °C
O=[N+]([O-])c1cnn2ccccc12	179 to 182 °C
c1cc(NC2=NCCN2)ccc1Cc1cc(OC2CCCC2)cs1	142 to 143 °C
CCOC(=O)c1nc(CC)[nH]c1C(=O)OCC	83 to 84 °C
COc1ccc2c(c1)N=C(NCc1cccnc1)c1ccccc1N2	160 to 161 °C
CCOC(=O)C(C)OCc1cc2nc(Cl)ccc2n1S(=O)(=O)c1ccc2nsnc2c1 (centres undefined)	77 to 79 °C
Nc1ccc(C2=Nn3ccnc3Cc3cc4c(cc32)OCO4)cc1	264 to 265 °C
COC(=O)NC1=NC(c2cccc(C(F)(F)F)c2)CN1 (centres undefined)	173 to 174 °C
Nc1cnc2ccsc2c1	121 to 123 °C
Cc1cccc(Oc2c[nH]c(=O)[nH]c2=O)c1	291 to 295 °C
CC(=O)c1ccc(NC2=Nc3ccc(Cl)cc3CS2)cc1	174 to 175 °C
CCN1C(=O)C(C)(C)C(=O)N(C)c2cc(CN(CCn3ccc4oc(C)cc4c3=O)Cc3cccnc3C#N)ccc21	114 to 118 °C
COC(=O)c1cc(OCc2c(C)cccc2C)c2nc(C)n(C)c2c1	165 to 169 °C
CCC1CC2C3CCC(C(C)CC(C)C(=O)O)C3(C)CCC2C2(C)CCC(O)CC12 (centres undefined)	138 °C
Cc1nc2c(n1-c1ccccc1)C(=O)c1ccccc1C2=O	242 °C
CCCCNCCNC(=O)Nc1ccccc1C(=O)NCC1CCN(C(c2ccccc2)c2ccccc2)CC1	148 to 150 °C
CC(=O)Cc1ccc2oc(C(=O)O)c(C)c2c1	77 to 79 °C
Cc1cc(C)cc(Sc2c(C(C)C)nc(C=NN)n2C)c1	118 to 119 °C
COc1ccc(C=C(C#N)c2c[nH]c3ccccc23)cc1OC	139 to 141 °C
CCC(=O)C(C)Oc1cc(C(=O)OC)ccc1OC (centres undefined)	63 to 65 °C
Nc1ccccc1Cc1n[nH]c(Cl)n1	162 to 165 °C
CCCCCCCCCCOc1ccc(C(=O)OCC(=O)OC)cc1	30 to 32 °C
